The record followed here is ChEMBL document CHEMBL1128211, “3D-quantitative structure-activity relationships of human immunodeficiency virus type-1 proteinase inhibitors: comparative molecular field analysis of 2-heterosubstituted statine derivatives-implications for the design of novel inhibitors” (J Med Chem, 1995).

The target in this assay is Human immunodeficiency virus type 1 protease (Human immunodeficiency virus 1, UniProt Q72874). The experiment in a line: Inhibitory activity was determined against HIV type 1 protease.

Consider `CC(C)[C@H](NC(=O)OCc1ccccc1)C(=O)N[C@@H](Cc1ccccc1)[C@@H](O)[C@@H](NCc1ccccc1)C(=O)N[C@H](C(=O)NCc1cccnc1)C(C)C`, for which the affinity, expressed as Ki, was 13.5 nM. This lies in the double-digit nanomolar range. With `CC(C)[C@H](NC(=O)[C@H](NCc1ccc(Cl)cc1)[C@H](O)[C@H](Cc1ccccc1)NC(=O)OC(C)(C)C)C(=O)NCc1nc2ccccc2[nH]1`, the Ki (as a rule, the equilibrium dissociation constant of an inhibitor or competing ligand from its target) is 11 nM. This Ki and that of the compound before are within 1.5-fold of each other.

`CC(C)[C@H](NC(=O)[C@H](NCc1ccccc1)[C@H](O)[C@H](Cc1ccccc1)NC(=O)[C@@H](NC(=O)c1nc2c(F)cccc2[nH]1)C(C)(C)C)C(=O)NCc1ccccc1`: the Ki is 26.9 nM.

In turn, `COc1ccc(CN[C@@H](C(=O)NCCC(=O)NCc2nc3ccccc3[nH]2)[C@H](O)[C@H](Cc2ccccc2)NC(=O)[C@@H](NC(=O)OCc2ccccc2)C(C)C)cc1` had a Ki of 46.8 nM. For `COc1cccc(CN[C@@H](C(=O)N[C@H](C(=O)NCc2ccccc2)C(C)C)[C@H](O)[C@H](Cc2ccccc2)NC(=O)[C@@H](NC(=O)OCc2ccccc2)C(C)C)c1`, the inhibition constant Ki was 9.55 nM.

`CC(C)[C@H](NC(=O)[C@H](NCc1ccccc1)[C@H](O)[C@H](Cc1ccccc1)NC(=O)OC(C)(C)C)C(=O)NCc1ccccc1` had a Ki of 158 nM.

Regarding `COc1ccc(CN[C@@H](C(=O)N[C@H]2c3ccccc3CC2O)[C@H](O)[C@H](Cc2ccccc2)NC(=O)[C@@H](NC(=O)c2cn3cccnc3n2)C(C)(C)C)cc1` (some centres not stated), the inhibition constant (Ki) was 22.9 nM.

`COc1ccc(CN[C@@H](C(=O)N[C@H](C(=O)NCCc2ccc(S(N)(=O)=O)cc2)C(C)C)[C@H](O)[C@H](Cc2ccccc2)NC(=O)[C@@H](NC(=O)OCc2ccccc2)C(C)C)cc1` gave a Ki of 14.1 nM. This Ki is about 1.6-fold lower than that of the compound before.

Take `CC(C)[C@H](NC(=O)OCc1ccccc1)C(=O)N[C@@H](Cc1ccccc1)[C@@H](O)[C@@H](NC1CCC(O)CC1)C(=O)N[C@H](C(=O)NCc1ccccc1)C(C)C` (stereo in doubt; 282808): the affinity corresponds to a Ki of 1700 nM.

In turn, `CC(C)(C)[C@H](NC(=O)OCc1ccccc1)C(=O)N[C@@H](Cc1ccccc1)[C@@H](O)[C@@H](NCc1ccc(OCCN2CCOCC2)cc1)C(=O)N[C@H](CO)c1ccccc1` (stereo in doubt; 283267) had a Ki of 129 nM. In the case of `CC(C)(C)[C@H](NC(=O)OCc1ccccc1)C(=O)N[C@@H](Cc1ccccc1)[C@@H](O)[C@@H](NCc1ccc(OCCN2CCOCC2)cc1)C(=O)N[C@H](CO)c1ccccc1` (stereo in doubt; 283268) it was 100 nM.

With `CC(C)[C@H](NC(=O)OCc1ccccc1)C(=O)N[C@@H](Cc1ccccc1)[C@@H](O)[C@@H](NC1CCC(O)CC1)C(=O)N[C@H](C(=O)NCc1ccccc1)C(C)C` (stereo in doubt; c), the Ki was 1410 nM.
